Data from PubChem BioAssay AID1963443 (Molecular Pharmacology Branch, DTP, NCI, 2024).

Tested on: MDA-MB-231 complex spheroids, growth inhibition
Assay: Anticancer human tumor MDA-MB-231 cell line growth inhibition [Asc];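 also: spheroids exposed to compounds for 7 days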
Conditions: for IC50: curve of first compound; for viability, T/C: stronger effect = lower value
How it was run: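 Stromal components (HUVEC and hMSC) are co-assembled with the cancer cells into multicellular spheroids. Drugs are then added singly or paired, at concentrations falling by half-log increments from a clinically achievable maximum, capped at 10 microM without known Cmax.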

Cc1nc(N2CCC3(CC2)COC(C)C3N)c(CO)nc1Sc1ccnc(N)c1Cl (stereo not given) + CCN1C(C(=O)NC23CCC(C(=O)O)(CC2)CC3)C(c2cccc(Cl)c2F)C2(C(=O)Nc3cc(Cl)ccc32)C12CCCCC2
IC50 (second compound 0.03 µM): 319 nM
IC50 (second compound 0.0949 µM): 337 nM
IC50 (second compound 0.3 µM): 281 nM
IC50 (second compound 0.949 µM): 270 nM
IC50 (second compound 3 µM): 157 nM
viability, T/C (second compound 0.03 µM, first compound 0.00949 µM): 95.8%
viability, T/C (second compound 0.03 µM, first compound 0.03 µM): 95.4%
viability, T/C (second compound 0.03 µM, first compound 0.0949 µM): 96.7%
viability, T/C (second compound 0.03 µM, first compound 0.3 µM): 52.7%
viability, T/C (second compound 0.03 µM, first compound 0.949 µM): 2.27%
viability, T/C (second compound 0.03 µM, first compound 3 µM): 0.7%
viability, T/C (second compound 0.0949 µM, first compound 0.00949 µM): 95.7%
viability, T/C (second compound 0.0949 µM, first compound 0.03 µM): 95.7%
viability, T/C (second compound 0.0949 µM, first compound 0.0949 µM): 87.2%
viability, T/C (second compound 0.0949 µM, first compound 0.3 µM): 56%
viability, T/C (second compound 0.0949 µM, first compound 0.949 µM): 2.11%
viability, T/C (second compound 0.0949 µM, first compound 3 µM): 0.82%
viability, T/C (second compound 0.3 µM, first compound 0.00949 µM): 99.6%
viability, T/C (second compound 0.3 µM, first compound 0.03 µM): 99%
viability, T/C (second compound 0.3 µM, first compound 0.0949 µM): 98.3%
viability, T/C (second compound 0.3 µM, first compound 0.3 µM): 47.1%
viability, T/C (second compound 0.3 µM, first compound 0.949 µM): 2.58%
viability, T/C (second compound 0.3 µM, first compound 3 µM): 0.88%
viability, T/C (second compound 0.949 µM, first compound 0.00949 µM): 109%
viability, T/C (second compound 0.949 µM, first compound 0.03 µM): 108%
viability, T/C (second compound 0.949 µM, first compound 0.0949 µM): 107%
viability, T/C (second compound 0.949 µM, first compound 0.3 µM): 44.2%
viability, T/C (second compound 0.949 µM, first compound 0.949 µM): 2.18%
viability, T/C (second compound 0.949 µM, first compound 3 µM): 0.9%
viability, T/C (second compound 3 µM, first compound 0.00949 µM): 91.1%
viability, T/C (second compound 3 µM, first compound 0.03 µM): 89.2%
viability, T/C (second compound 3 µM, first compound 0.0949 µM): 81.8%
viability, T/C (second compound 3 µM, first compound 0.3 µM): 9.35%
viability, T/C (second compound 3 µM, first compound 0.949 µM): 1.26%
viability, T/C (second compound 3 µM, first compound 3 µM): 0.54%

CCN1CCN(Cc2ccc(Nc3ncc(F)c(-c4cc(F)c5nc(C)n(C(C)C)c5c4)n3)nc2)CC1 + CCN1C(C(=O)NC23CCC(C(=O)O)(CC2)CC3)C(c2cccc(Cl)c2F)C2(C(=O)Nc3cc(Cl)ccc32)C12CCCCC2
IC50 (second compound 0.03 µM): 305 nM
IC50 (second compound 0.0949 µM): 479 nM
IC50 (second compound 0.3 µM): > 1000 nM
IC50 (second compound 0.949 µM): > 1000 nM
IC50 (second compound 3 µM): > 1000 nM
viability, T/C (second compound 0.03 µM, first compound 0.00316 µM): 102%
viability, T/C (second compound 0.03 µM, first compound 0.01 µM): 94.3%
viability, T/C (second compound 0.03 µM, first compound 0.0316 µM): 76.6%
viability, T/C (second compound 0.03 µM, first compound 0.1 µM): 59%
viability, T/C (second compound 0.03 µM, first compound 0.316 µM): 49.8%
viability, T/C (second compound 0.03 µM, first compound 1 µM): 46.6%
viability, T/C (second compound 0.0949 µM, first compound 0.00316 µM): 109%
viability, T/C (second compound 0.0949 µM, first compound 0.01 µM): 98.8%
viability, T/C (second compound 0.0949 µM, first compound 0.0316 µM): 79.7%
viability, T/C (second compound 0.0949 µM, first compound 0.1 µM): 61.8%
viability, T/C (second compound 0.0949 µM, first compound 0.316 µM): 50.5%
viability, T/C (second compound 0.0949 µM, first compound 1 µM): 48.1%
viability, T/C (second compound 0.3 µM, first compound 0.00316 µM): 103%
viability, T/C (second compound 0.3 µM, first compound 0.01 µM): 99.9%
viability, T/C (second compound 0.3 µM, first compound 0.0316 µM): 86.9%
viability, T/C (second compound 0.3 µM, first compound 0.1 µM): 67%
viability, T/C (second compound 0.3 µM, first compound 0.316 µM): 55%
viability, T/C (second compound 0.3 µM, first compound 1 µM): 52.7%
viability, T/C (second compound 0.949 µM, first compound 0.00316 µM): 105%
viability, T/C (second compound 0.949 µM, first compound 0.01 µM): 101%
viability, T/C (second compound 0.949 µM, first compound 0.0316 µM): 85.5%
viability, T/C (second compound 0.949 µM, first compound 0.1 µM): 67.2%
viability, T/C (second compound 0.949 µM, first compound 0.316 µM): 52.8%
viability, T/C (second compound 0.949 µM, first compound 1 µM): 53%
viability, T/C (second compound 3 µM, first compound 0.00316 µM): 94.8%
viability, T/C (second compound 3 µM, first compound 0.01 µM): 86.6%
viability, T/C (second compound 3 µM, first compound 0.0316 µM): 73.6%
viability, T/C (second compound 3 µM, first compound 0.1 µM): 54.5%
viability, T/C (second compound 3 µM, first compound 0.316 µM): 49.1%
viability, T/C (second compound 3 µM, first compound 1 µM): 52.6%
